EC50 and IC50 data for 2 molecules are collected here from ChEMBL document CHEMBL5512602, “Unlocking the synthetic approaches and clinical application of approved small-molecule drugs for gastrointestinal cancer treatment: A comprehensive exploration” (Eur J Med Chem, 2023).

In one assay the test system is A-375. As to the kind of experiment: Antiproliferative activity against human A-375 cells harboring BRAF V600E mutant assessed as reduction in cell growth. The class given is functional, cell-based.
Assay [1] concerns the target Vascular endothelial growth factor receptor 2 (Homo sapiens, UniProt P35968). The assay can be described thus: Inhibition of human recombinant VEGFR2 by FRET based Z-LYTE kinase assay.

Chain of Vascular endothelial growth factor receptor 2 (P35968 whole entry): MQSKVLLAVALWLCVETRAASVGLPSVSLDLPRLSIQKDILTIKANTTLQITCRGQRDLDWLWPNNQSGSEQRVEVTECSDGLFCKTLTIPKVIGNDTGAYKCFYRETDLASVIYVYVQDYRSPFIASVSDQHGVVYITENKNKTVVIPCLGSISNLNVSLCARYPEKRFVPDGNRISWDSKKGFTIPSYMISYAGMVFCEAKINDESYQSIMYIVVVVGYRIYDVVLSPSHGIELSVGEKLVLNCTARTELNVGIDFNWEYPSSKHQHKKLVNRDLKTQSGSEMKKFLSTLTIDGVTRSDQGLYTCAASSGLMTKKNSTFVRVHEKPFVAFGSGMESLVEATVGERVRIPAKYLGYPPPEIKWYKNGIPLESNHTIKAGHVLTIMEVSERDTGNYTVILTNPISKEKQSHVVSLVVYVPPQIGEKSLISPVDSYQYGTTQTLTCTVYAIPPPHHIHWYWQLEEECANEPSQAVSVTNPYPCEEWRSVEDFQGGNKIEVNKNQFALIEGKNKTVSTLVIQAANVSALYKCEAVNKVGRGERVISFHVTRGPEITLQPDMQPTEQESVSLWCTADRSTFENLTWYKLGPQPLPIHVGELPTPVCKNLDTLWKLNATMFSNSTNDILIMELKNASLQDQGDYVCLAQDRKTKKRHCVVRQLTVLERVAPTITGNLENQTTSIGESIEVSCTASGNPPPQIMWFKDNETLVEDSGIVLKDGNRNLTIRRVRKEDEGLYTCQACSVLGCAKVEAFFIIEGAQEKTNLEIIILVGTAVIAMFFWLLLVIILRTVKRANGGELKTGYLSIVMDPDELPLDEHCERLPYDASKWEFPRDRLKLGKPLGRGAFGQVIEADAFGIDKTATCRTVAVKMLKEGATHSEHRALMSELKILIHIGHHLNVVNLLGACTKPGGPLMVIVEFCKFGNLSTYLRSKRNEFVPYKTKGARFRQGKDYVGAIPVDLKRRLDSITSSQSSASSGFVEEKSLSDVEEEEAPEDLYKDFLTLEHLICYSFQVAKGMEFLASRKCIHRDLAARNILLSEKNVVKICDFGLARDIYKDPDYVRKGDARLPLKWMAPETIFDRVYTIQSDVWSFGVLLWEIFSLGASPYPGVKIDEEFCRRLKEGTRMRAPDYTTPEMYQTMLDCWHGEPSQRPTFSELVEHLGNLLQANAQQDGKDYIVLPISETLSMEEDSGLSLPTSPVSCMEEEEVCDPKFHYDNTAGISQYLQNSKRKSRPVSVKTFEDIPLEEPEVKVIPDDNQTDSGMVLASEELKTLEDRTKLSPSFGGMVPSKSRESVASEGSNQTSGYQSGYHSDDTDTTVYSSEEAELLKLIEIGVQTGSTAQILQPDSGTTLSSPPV

Take `COC(=O)N[C@@H](C)CNc1nccc(-c2cn(C(C)C)nc2-c2cc(Cl)cc(NS(C)(=O)=O)c2F)n1` [ENCORAFENIB]: in the assay on A-375, the 50% effective concentration (EC50) (as a rule, the midpoint of the concentration-response curve) came out at 4 nM.
In the case of `CNC(=O)c1c(C)oc2cc(Oc3ncnc4cc(OC)c(OC)cc34)ccc12` [FRUQUINTINIB], the IC50 (commonly the point on the concentration scale where inhibition reaches its midpoint) in assay [1] is 0.35 nM.
